For this experiment, the target named is T1, Nav 1.7 (Homo sapiens, UniProt Q15858).
T1 construct: expressed in transfected cells
In words: Whole-cell voltage clamp electrophysiology, automated patch clamp (marker c in Table of Examples). The format is cell-based. Conditions: read-out: Nav 1.7 activity. The procedure, abridged:
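A voltage protocol weighted toward inactivated-state block was used to test compounds on stably expressing cells, with pulses from −65 mV holding to −10 mV test and −100 mV. Currents came from whole-cell automated patch-clamp recordings, either IonWorks Quattro or other automated instruments, usually in perforated-patch mode.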
In general terms: In patch-clamp work, channel activity is measured electrically.

The mark [1] stands for this setting: marker c: Automated patch clamp data.
Where [2] appears, read: marker c = Automated patch clamp data.

The structures appear in SMILES notation. Like-named read-outs stand apart in the source and are kept apart here.

T1 sequence (Q15858 whole entry): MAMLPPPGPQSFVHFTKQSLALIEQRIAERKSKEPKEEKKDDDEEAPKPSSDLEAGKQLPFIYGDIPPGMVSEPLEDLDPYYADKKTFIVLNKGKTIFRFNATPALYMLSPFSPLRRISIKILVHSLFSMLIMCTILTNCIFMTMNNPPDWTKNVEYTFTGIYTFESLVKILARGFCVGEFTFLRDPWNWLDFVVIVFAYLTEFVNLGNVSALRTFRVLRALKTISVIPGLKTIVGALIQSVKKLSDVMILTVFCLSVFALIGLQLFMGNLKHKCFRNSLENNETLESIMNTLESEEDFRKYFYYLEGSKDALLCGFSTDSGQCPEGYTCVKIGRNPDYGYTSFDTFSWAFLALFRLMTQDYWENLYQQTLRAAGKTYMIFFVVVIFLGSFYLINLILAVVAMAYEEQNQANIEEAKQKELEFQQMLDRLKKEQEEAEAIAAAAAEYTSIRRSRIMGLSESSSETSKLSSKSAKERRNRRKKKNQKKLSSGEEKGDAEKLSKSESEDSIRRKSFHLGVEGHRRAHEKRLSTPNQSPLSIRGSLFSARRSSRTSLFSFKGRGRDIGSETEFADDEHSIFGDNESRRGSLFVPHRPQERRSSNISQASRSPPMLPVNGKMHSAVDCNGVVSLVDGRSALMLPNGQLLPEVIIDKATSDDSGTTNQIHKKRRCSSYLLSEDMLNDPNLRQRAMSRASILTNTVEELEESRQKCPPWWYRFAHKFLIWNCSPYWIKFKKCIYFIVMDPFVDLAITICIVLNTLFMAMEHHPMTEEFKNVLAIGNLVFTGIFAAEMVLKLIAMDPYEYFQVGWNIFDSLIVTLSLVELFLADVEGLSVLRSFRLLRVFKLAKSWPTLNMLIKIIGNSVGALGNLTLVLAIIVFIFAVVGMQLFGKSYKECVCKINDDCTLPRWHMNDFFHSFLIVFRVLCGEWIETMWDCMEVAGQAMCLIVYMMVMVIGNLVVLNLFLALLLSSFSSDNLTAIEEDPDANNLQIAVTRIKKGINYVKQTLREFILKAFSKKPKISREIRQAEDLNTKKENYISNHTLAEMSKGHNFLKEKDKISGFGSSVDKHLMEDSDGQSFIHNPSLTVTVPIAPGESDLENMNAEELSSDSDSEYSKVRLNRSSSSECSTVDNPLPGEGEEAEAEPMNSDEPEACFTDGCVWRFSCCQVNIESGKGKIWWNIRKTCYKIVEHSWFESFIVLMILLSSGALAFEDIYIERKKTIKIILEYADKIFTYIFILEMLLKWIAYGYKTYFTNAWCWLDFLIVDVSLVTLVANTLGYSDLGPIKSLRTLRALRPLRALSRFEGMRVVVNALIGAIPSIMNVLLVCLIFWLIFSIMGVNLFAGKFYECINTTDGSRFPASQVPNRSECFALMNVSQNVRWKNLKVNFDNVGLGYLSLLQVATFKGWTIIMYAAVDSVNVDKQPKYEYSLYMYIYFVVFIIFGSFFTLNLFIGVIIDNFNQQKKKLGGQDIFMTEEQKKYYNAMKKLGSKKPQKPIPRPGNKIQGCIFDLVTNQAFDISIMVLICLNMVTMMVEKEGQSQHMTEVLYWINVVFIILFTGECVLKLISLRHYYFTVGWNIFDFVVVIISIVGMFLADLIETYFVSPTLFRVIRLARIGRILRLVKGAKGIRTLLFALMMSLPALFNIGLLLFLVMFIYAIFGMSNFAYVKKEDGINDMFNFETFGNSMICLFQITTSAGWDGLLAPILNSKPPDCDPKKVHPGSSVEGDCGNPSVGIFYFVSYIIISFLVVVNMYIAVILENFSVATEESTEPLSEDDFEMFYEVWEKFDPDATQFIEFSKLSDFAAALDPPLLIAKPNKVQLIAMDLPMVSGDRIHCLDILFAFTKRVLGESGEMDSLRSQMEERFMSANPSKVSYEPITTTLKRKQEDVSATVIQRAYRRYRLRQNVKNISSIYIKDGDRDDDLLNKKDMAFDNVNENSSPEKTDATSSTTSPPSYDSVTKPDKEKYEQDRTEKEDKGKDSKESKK

Consider `CCCS(=O)(=O)N1CCC(c2nc(-c3nc(N)nc(N(C)c4ccccc4)n3)no2)CC1` [Example 168, 2-N-methyl-2-N-phenyl-6-{5-[1 - (propane-1-sulfonyl)piperidin-4-yl]-1,2,4-oxadiazol-3-yl}-1,3,5-triazine-2,4-diamine], for which the IC50 under setting [1] is 1.47 µM.
Regarding `CC1CCN(c2nc(-c3nc(N)nc(Nc4ccccc4)n3)no2)CC1` [Example 243, 6-[5-(4-methylpiperidin-1-yl)-1,2,4-oxadiazol-3-yl]-2-N-phenyl-1,3,5-triazine-2,4-diamine], the IC50 under setting [2] worked out at 7.95 µM.
Same read-out and setting: to `CN(c1ccccc1)c1nc(N)nc(-c2noc(-c3cnccn3)n2)n1` [Example 468, 2-N-methyl-2-N-phenyl-6-[5-(pyrazin-2-yl)-1,2,4-oxadiazol-3-yl]-1,3,5-triazine-2,4-diamine] belongs 8.91 µM.
On to `Cc1ccc(-c2nc(-c3nc(N)nc(N(C)c4ccccc4)n3)no2)cc1` [Example 29, N-Methyl-N-phenyl-6-(5-p-tolyl-[1,2,4]oxadiazol-3-yl)-[1,3,5]triazine-2,4-diamine], for which the IC50 under setting [1] turned out to be 1.38 µM.
Turning to `Cc1cccc(N(C)c2nc(N)nc(-c3noc(-c4ccccc4Cl)n3)n2)c1` [Example 195, 6-[5-(2-chlorophenyl)-1,2,4-oxadiazol-3-yl]-2-N-methyl-2-N-(3-methylphenyl)-1,3,5-triazine-2,4-diamine], the IC50 under setting [1] was 0.431 µM.
With `Cc1ncccc1-c1nc(-c2nc(N)nc(N(C)c3ccccc3)n2)no1` [Example 268, 2-N-methyl-6-[5-(2-methylpyridin-3-yl)-1,2,4-oxadiazol-3-yl]-2-N-phenyl-1,3,5-triazine-2,4-diamine], the IC50 under setting [2] worked out at 1.36 µM.
`CN(c1ccccc1)c1nc(N)nc(-c2noc(C(=O)N3CCCC3)n2)n1` [Example 276, 2-N-methyl-2-N-phenyl-6-{5-[(pyrrolidin-1-yl)carbonyl]-1,2,4-oxadiazol-3-yl}-1,3,5-triazine-2,4-diamine]: under setting [2], the IC50 is 1.68 µM.
Still for that read-out and setting: to `CN(c1ccccc1)c1nc(N)nc(-c2noc(-c3ccc(SCC4CC4)nc3)n2)n1` [Example 452, 6-(5-{6-[(cyclopropylmethyl)sulfanyl]pyridin-3-yl}-1,2,4-oxadiazol-3-yl)-2-N-methyl-2-N-phenyl-1,3,5-triazine-2,4-diamine] belongs 0.061 µM.
For `CNC(=O)c1ccc(-c2nc(-c3nc(N)nc(N(C)c4ccccc4)n3)no2)s1` [Example 75, 5-{3-[4-Amino-6-(methyl-phenyl-amino)-[1,3,5]triazin-2-yl]-[1,2,4]oxadiazol-5-yl}-thiophene-2-carboxylic acid methylamide], under setting [1], the IC50 was found to be 1.19 µM.
For the molecule `Nc1nc(Nc2cccc(F)c2)nc(-c2noc(-c3ncccc3F)n2)n1` [Example 240, 2-N-(3-fluorophenyl)-6-[5-(3-fluoropyridin-2-yl)-1,2,4-oxadiazol-3-yl]-1,3,5-triazine-2,4-diamine], the IC50 under setting [2] was 0.172 µM.
On the same count and under the same terms, the same measure for `CC(Oc1ccc(-c2nc(-c3nc(N)nc(N(C)c4ccccc4)n3)no2)cn1)C(F)(F)F` (stereo not drawn) [Example 357, 2-N-methyl-2-N-phenyl-6-(5-{6-[(1,1,1-trifluoropropan-2-yl)oxy]pyridin-3-yl}-1,2,4-oxadiazol-3-yl)-1,3,5-triazine-2,4-diamine]: 0.055 µM; for `CN(c1ccccc1)c1nc(N)nc(-c2noc(N3CCC(SCC(F)(F)F)CC3)n2)n1` [Example 362, 2-N-methyl-2-N-phenyl-6-(5-{4-[(2,2,2-trifluoroethyl)sulfanyl]piperidin-1yl}-1,2,4-oxadiazol-3-yl)-1,3,5-triazine-2,4-diamine]: 0.711 µM.
In the case of `CN(c1ccccc1)c1nc(N)nc(-c2noc(-c3c[nH]cn3)n2)n1` [Example 59, 6-[5-(1H-Imidazol-4-yl)-[1,2,4]oxadiazol-3-yl]-N-methyl-N-phenyl-[1,3,5]triazine-2,4-diamine], under setting [1], the IC50 came to 8.12 µM.
For the molecule `CN(c1ccccc1)c1nc(N)nc(-c2noc(C3CCN(S(=O)(=O)c4ccccc4)C3)n2)n1` (stereo not drawn) [Example 203, 6-{5-[1-(benzenesulfonyl)pyrrolidin-3-yl]-1,2,4-oxadiazol-3-yl}-2-N-methyl-2-N-phenyl-1,3,5-triazine-2,4-diamine], under setting [2], the IC50 came to 4.56 µM.
Still for that read-out and setting: to `CN(c1ccccc1)c1nc(N)nc(-c2noc(C3CCC(Oc4ccccc4)CC3)n2)n1` (stereo not drawn) [Example 429, 2-N-methyl-6-[5-(4-phenoxycyclohexyl)-1,2,4-oxadiazol-3-yl]-2-N-phenyl-1,3,5-triazine-2,4-diamine] belongs 0.289 µM.
In the case of `Cc1ccsc1-c1nc(-c2nc(N)nc(N(C)c3ccccc3)n2)no1` [Example 126, N-Methyl-6-[5-(3-methyl-thiophen-2-yl)-[1,2,4]oxadiazol-3-yl]-N-phenyl-[1,3,5]triazine-2,4-diamine], the IC50 under setting [1] amounted to 0.782 µM.
Still for that read-out and setting: the same measure for `Cc1ccc(-c2nc(-c3nc(N)nc(N(C)c4cccc(F)c4)n3)no2)o1` [Example 87, N-(3-Fluoro-phenyl)-N-methyl-6-[5-(5-methyl-furan-2-yl)-[1,2,4]oxadiazol-3-yl]-[1,3,5]triazine-2,4-diamine]: 3.49 µM.
For `COCCOc1ccc(-c2nc(-c3nc(N)nc(N(C)c4ccccc4)n3)no2)cn1` [Example 329, 6-{5-[6-(2-methoxyethoxy)pyridin-3-yl]-1,2,4-oxadiazol-3-yl}-2-N-methyl-2-N-phenyl-1,3,5-triazine-2,4-diamine], the IC50 under setting [2] worked out at 0.894 µM.
On the same count and under the same terms, to `CC(C)Oc1cccnc1-c1nc(-c2nc(N)nc(N(C)c3ccccc3)n2)no1` [Example 484, 2-N-methyl-2-N-phenyl-6-{5-[3-(propan-2-yloxy)pyridin-2-yl]-1,2,4-oxadiazol-3-yl}-1,3,5-triazine-2,4-diamine] belongs 0.695 µM.
Take `Nc1nc(-c2noc(-c3ccco3)n2)nc(N(CC2CC2)c2ccccc2)n1` [Example 121, N-Cyclopropylmethyl-6-(5-furan-2-yl-[1,2,4]oxadiazol-3-yl)-N-phenyl-[1,3,5]triazine-2,4-diamine]: under setting [1], the IC50 turned out to be 0.395 µM.
As for `CN(c1ccccc1)c1nc(N)nc(-c2noc([C@H]3CCCN3C(=O)OC(C)(C)C)n2)n1` [Example 353, tert-butyl (2R)-2-(3-{4-amino-6-[methyl(phenyl)amino]-1,3,5-triazin-2-yl}-1,2,4-oxadiazol-5-yl)pyrrolidine-1-carboxylate], the IC50 under setting [2] turned out to be 0.893 µM.
Consider `COc1cc(F)ccc1-c1nc(-c2nc(N)nc(N(C)c3cccc(C)c3)n2)no1` [Example 187, 6-[5-(4-fluoro-2-methoxyphenyl)-1,2,4-oxadiazol-3-yl]-2-N-methyl-2-N-(3-methylphenyl)-1,3,5-triazine-2,4-diamine], for which the IC50 under setting [1] was found to be 0.458 µM.
On to `Nc1nc(Nc2ccccc2)nc(-c2noc(-c3ccc(COCC(F)(F)F)cn3)n2)n1` [Example 350, 2-N-phenyl-6-(5-{5-[(2,2,2-trifluoroethoxy)methyl]pyridin-2-yl}-1,2,4-oxadiazol-3-yl)-1,3,5-triazine-2,4-diamine], for which the IC50 under setting [2] was found to be 0.004 µM.
For the molecule `CN(c1ccccc1)c1nc(N)nc(-c2noc(C(=O)N3C[C@@H]4[C@@H](COCC5CC5)[C@@H]4C3)n2)n1` [Example 404, 6-(5-{[-6-[(cyclopropylmethoxy)methyl]-3-azabicyclo[3.1.0]hexan-3-yl]carbonyl}-1,2,4-oxadiazol-3-yl)-2-N-methyl-2-N-phenyl-1,3,5-triazine-2,4-diamine], the IC50 under setting [2] turned out to be 3.46 µM.
Same read-out and setting: to `CN(c1cccc(F)c1)c1nc(N)nc(-c2noc(-c3ncccc3F)n2)n1` [Example 476, 2-N-(3-fluorophenyl)-6-[5-(3-fluoropyridin-2-yl)-1,2,4-oxadiazol-3-yl]-2-N-methyl-1,3,5-triazine-2,4-diamine] belongs 0.366 µM; to `CN(c1ccccc1)c1nc(N)nc(-c2noc(-c3ccc(C(=O)OC4CCCC4)nc3)n2)n1` [Example 290, cyclopentyl 5-(3-{4-amino-6-[methyl(phenyl)amino]-1,3,5-triazin-2-yl}-1,2,4-oxadiazol-5-yl)pyridine-2-carboxylate], 0.059 µM.
Consider `Nc1nc(Nc2ccccc2)nc(-c2noc(C(=O)NC3CCc4ccccc43)n2)n1` (stereo not drawn) [Example 244, 3-[4-amino-6-(phenylamino)-1,3,5-triazin-2-yl]-N-(2,3-dihydro-1H-inden-1-yl)-1,2,4-oxadiazole-5-carboxamide], for which, under setting [2], the IC50 stood at 2.97 µM.
On the same count and under the same terms, to `CN(c1ccccc1)c1nc(N)nc(-c2noc(-c3ccnn3CC(F)(F)F)n2)n1` [Example 257, 2-N-methyl-2-N-phenyl-6-{5-[1 - (2,2,2-trifluoroethyl)-1H-pyrazol-5-yl]-1,2,4-oxadiazol-3-yl}-1,3,5-triazine-2,4-diamine] belongs 3.25 µM.
`Nc1nc(Nc2ccccc2)nc(-c2noc(C(=O)N3CCC(OCC(F)(F)F)CC3)n2)n1` [Example 457, 2-N-phenyl-6-(5-{[4-(2,2,2-trifluoroethoxy)piperidin-1-yl]carbonyl}-1,2,4-oxadiazol-3-yl)-1,3,5-triazine-2,4-diamine]: under setting [2], the IC50 was 1.3 µM.
Still for that read-out and setting: the same measure for `CN(c1ccccc1)c1nc(N)nc(-c2noc(-c3ccc4c(c3)COC4)n2)n1` [Example 306, 6-(5-(1,3-dihydro-2-benzofuran-5-yl)-1,2,4-oxadiazol-3-yl]-2-N-methyl-2-N-phenyl-1,3,5-triazine-2,4-diamine]: 2.67 µM.
Consider `CN(c1ccccc1)c1nc(N)nc(-c2noc(C(=O)N3CC(Oc4ccc(F)cc4)C3)n2)n1` [Example 137], for which the IC50 under setting [1] worked out at 0.564 µM.
Take `CN(c1ccccc1)c1nc(N)nc(-c2noc(C(=O)N3CCC(COCC4CC4)CC3)n2)n1` [Example 459, 6-[5-({4-[(cyclopropylmethoxy)methyl]piperidin-1-yl}carbonyl)-1,2,4-oxadiazol-3-yl]-2-N-methyl-2-N-phenyl-1,3,5-triazine-2,4-diamine]: the IC50 under setting [2] turned out to be 3.25 µM.
On the same count and under the same terms, to `CN(c1ccccc1)c1nc(N)nc(-c2noc(N3CCC(NC(=O)C(F)(F)F)CC3)n2)n1` [Example 274, N-[1-(3-{4-amino-6-[methyl(phenyl)amino]-1,3,5-triazin-2-yl}-1,2,4-oxadiazol-5-yl)piperidin-4-yl]-2,2,2-trifluoroacetamide] belongs 8.58 µM.

The values are drawn from patent US8895733B2 (Novartis AG, priority 2010, dated 2014).
